From ChEMBL document CHEMBL1201862, “PubChem BioAssay data set” (2004)
The source made the active and inactive calls.

Columns and labels:
[1] = viability of PTEN-deleted HCT116 cells – cell-based, HCT116 PTEN knockout, dose response (AID 1047); assay type: functional;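 note: HCT116 colon tumor cells with PTEN knocked out; cells exposed to compound for 60 hours before readout; potency for loss of cell viability measured by luminescence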
[2] = viability of HCT116 lacking mutant beta-catenin – cell-based, human colon tumor, dose response (AID 1045); assay type: functional;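 note: HCT116 colon tumor cells with beta catenin knocked out; cells exposed to compound for 60 hours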
[3] = viability loss in THP-1 monocytes – THP-1 cells, cytotoxicity control for Vif-APOBEC3G degradation inhibitor project, dose response (AID 1117359); assay type: functional; settings: THP-1
Estrogen receptor beta = Estrogen receptor beta (Homo sapiens, UniProt Q92731);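 note: recombinant ER-beta bound to coactivator SRC1 peptide in presence of estradiol agonist; inhibitors block coactivator peptide binding and lower the FRET signal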
[4] = viability loss of HPDE-C7K cells – cell-based, fluorescence, HTS, primary screen (AID 431); assay type: functional; settings: Homo sapiens
[5] = HPDE-C7 pancreatic duct cell viability loss – fluorescence, HTS (AID 430); assay type: functional, cell-based; settings: Homo sapiens
[6] = molecular target: DNA dC->dU-editing enzyme APOBEC-3G (Homo sapiens, UniProt Q9HC16); experiment: Dose Response confirmation of small molecule APOBEC3G DNA Deaminase Inhibitors via a fluorescence-based single-stranded DNA deaminase assay. [Related pubchem assays (depositor defined):AID493012, AID493028]; assay type: functional
[7] = molecular target: DNA dC->dU-editing enzyme APOBEC-3A (Homo sapiens, UniProt P31941); experiment: A3A deaminase inhibition for selectivity – biochemical, dose response (AID 504722); assay type: functional
Coagulation factor XII = molecular target: T1, Coagulation factor XII (Homo sapiens, UniProt P00748); assay type: functional;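 note: activated factor XIIa alpha cleaving a fluorogenic AMC peptide substrate; inhibitor potency from loss of enzyme activity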
T1 sequence (P00748 whole entry): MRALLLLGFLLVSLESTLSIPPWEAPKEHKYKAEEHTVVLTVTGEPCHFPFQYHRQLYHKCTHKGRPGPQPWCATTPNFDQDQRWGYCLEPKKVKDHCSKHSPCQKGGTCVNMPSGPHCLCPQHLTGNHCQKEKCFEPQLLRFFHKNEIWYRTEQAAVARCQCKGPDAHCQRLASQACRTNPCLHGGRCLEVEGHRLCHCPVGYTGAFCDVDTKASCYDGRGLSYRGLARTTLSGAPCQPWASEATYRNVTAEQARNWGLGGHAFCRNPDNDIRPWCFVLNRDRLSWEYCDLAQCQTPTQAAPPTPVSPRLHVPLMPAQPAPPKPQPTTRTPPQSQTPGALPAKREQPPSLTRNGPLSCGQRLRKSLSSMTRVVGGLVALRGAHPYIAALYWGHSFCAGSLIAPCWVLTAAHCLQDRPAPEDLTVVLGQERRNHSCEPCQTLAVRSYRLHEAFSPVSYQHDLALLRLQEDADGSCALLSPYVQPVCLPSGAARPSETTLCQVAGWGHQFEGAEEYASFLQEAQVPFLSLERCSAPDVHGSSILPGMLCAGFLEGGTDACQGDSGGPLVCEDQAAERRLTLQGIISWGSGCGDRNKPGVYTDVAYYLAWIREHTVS

Cytochrome P450 2C19 = Cytochrome P450 2C19 (Homo sapiens, UniProt P33261); experiment: Cytochrome panel assay with activity outcomes. Panel member name: p450-cyp2c19 Compounds with AC50 equal or less than 10 uM are considered active; assay type: functional; settings: read-out: AC50
Cytochrome P450 2D6 = Cytochrome P450 2D6 (Homo sapiens, UniProt P10635);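 note: CYP2D6 member of a cytochrome P450 panel assay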
[8] = Trypanosoma cruzi growth suppression in host cells – NIH3T3 host cells, beta-gal luminescence, confirmation (AID 2044); assay type: functional, cell-based;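 note: intracellular parasites grown in NIH/3T3 mouse fibroblasts as host cells; luminescent beta-galactosidase reporter signal from transgenic T. cruzi replicating inside host cells; inhibitors lower the luminescence signal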
[9] = NIH3T3 cell viability loss – ATP luminescence, mouse fibroblasts, counter-screen, dose response (AID 2010); assay type: functional, cell-based;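 note: cells exposed to compound for about 90 hours before reading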
[10] = molecular target: T2, Short transient receptor potential channel 4 (Mus musculus, UniProt Q9QUQ5); experiment: block of DAMGO-driven TRPC4 calcium entry – cell-based, HEK293 TRPC4/mu-opioid, Fluo-4 calcium, dose response (AID 434942); assay type: functional;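 note: potency of inhibitors blocking the TRPC4 calcium response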
T2 sequence (Q9QUQ5 whole entry): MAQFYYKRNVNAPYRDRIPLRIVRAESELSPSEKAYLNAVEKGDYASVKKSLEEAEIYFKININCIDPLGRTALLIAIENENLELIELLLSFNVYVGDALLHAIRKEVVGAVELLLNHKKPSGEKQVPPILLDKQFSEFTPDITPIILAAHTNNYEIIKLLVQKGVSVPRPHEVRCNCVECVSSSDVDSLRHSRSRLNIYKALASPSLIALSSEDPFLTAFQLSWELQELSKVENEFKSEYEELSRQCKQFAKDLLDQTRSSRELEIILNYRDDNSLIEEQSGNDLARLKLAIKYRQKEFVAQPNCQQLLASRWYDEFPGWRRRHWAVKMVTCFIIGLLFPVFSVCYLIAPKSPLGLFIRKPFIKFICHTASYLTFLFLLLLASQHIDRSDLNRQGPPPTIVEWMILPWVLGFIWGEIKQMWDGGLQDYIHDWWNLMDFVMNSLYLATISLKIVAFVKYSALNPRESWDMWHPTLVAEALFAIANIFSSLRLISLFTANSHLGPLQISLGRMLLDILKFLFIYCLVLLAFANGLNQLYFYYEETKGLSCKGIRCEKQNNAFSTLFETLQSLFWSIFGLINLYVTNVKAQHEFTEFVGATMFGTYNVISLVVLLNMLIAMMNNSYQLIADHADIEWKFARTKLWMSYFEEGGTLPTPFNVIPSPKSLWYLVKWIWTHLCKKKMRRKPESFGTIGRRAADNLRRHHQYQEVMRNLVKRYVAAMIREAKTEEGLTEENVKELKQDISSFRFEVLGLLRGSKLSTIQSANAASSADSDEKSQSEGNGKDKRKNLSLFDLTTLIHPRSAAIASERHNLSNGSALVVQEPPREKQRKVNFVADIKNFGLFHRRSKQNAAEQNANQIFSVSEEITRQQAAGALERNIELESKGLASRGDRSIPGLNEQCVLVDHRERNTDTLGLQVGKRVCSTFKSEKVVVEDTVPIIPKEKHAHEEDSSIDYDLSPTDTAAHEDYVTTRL

[11] = Luminescence Cell-Based Dose Confirmation HTS to Identify Inhibitors of Platelet Dense Granule Release. [Related pubchem assays: 1663 (Primary HTS), 1678 (Summary of Project)]; assay type: functional
Large T antigen = Large T antigen (Simian virus 40, UniProt P03070); assay type: functional, Betapolyomavirus macacae;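 note: Confirmatory-stage PubChem screen for compounds that inhibit SV40 T antigen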
[12] = molecular target: Luciferin 4-monooxygenase (Photinus pyralis, UniProt P08659); experiment: inhibition of purified Photinus pyralis luciferase – biochemical, luminescence, dose response (AID 1891)
[13] = molecular target: T3, Replicative DNA helicase DnaB (Mycobacterium tuberculosis, UniProt P9WMR3); experiment: DnaB intein splicing inhibitors, dose response, biochemical, cell-free fluorescence (AID 449749); assay type: functional
T3 sequence (P9WMR3 whole entry): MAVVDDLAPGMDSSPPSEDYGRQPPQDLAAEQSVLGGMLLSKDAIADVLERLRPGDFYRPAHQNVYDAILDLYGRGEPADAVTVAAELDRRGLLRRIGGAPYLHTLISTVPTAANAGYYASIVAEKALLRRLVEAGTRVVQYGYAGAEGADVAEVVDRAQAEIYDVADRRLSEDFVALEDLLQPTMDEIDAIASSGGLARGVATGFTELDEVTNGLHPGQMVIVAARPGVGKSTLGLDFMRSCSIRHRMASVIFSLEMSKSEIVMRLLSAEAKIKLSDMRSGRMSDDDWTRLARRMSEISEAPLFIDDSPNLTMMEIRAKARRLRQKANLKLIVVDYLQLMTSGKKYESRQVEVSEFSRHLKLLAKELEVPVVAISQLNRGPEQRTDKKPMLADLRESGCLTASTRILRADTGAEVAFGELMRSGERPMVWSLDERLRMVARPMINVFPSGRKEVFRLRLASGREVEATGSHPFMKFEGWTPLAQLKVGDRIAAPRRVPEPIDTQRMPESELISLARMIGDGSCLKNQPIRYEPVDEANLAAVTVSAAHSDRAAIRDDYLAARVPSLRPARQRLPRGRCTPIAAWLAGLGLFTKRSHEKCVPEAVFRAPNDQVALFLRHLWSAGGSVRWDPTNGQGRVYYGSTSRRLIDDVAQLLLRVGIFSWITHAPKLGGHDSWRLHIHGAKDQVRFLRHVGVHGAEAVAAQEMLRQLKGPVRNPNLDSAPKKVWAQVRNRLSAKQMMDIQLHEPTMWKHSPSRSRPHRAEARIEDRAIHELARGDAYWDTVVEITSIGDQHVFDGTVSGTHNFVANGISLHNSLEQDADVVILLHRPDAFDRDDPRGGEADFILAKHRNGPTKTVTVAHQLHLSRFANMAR

Protein RecA = molecular target: T4, Protein RecA (Mycobacterium tuberculosis, UniProt P9WHJ3); experiment: Fluorescence Cell-Free Homogeneous Dose Retest to Identify Inhibitors of RecA-Intein Splicing Activity. [Related pubchem assays (depositor defined):AID2097, AID2223, AID489010, AID492950]; assay type: functional
T4 sequence (P9WHJ3 whole entry): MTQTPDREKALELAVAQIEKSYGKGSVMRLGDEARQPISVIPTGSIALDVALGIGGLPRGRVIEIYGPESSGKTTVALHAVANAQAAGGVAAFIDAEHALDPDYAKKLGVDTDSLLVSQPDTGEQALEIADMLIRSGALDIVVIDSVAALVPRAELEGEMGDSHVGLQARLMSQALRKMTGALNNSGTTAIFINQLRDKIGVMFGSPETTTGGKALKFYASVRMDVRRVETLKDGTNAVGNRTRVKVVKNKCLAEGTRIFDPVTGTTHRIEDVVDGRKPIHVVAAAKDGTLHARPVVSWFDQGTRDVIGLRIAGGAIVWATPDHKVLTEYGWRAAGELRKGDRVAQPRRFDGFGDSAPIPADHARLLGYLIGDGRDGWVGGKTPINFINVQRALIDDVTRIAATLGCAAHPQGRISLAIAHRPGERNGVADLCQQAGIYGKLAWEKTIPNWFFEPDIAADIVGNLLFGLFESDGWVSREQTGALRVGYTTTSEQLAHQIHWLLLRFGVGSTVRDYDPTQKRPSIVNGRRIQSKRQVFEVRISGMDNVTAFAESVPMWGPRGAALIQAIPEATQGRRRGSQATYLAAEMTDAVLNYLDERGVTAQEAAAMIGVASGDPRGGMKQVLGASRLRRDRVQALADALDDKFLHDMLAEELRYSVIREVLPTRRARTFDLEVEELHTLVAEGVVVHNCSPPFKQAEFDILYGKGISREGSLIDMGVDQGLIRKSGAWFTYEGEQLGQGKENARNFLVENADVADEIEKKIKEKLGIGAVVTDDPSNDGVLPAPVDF

cells = assay type: functional
[14] = Vero E6 cell cytotoxicity, dose response, cytotoxicity control for non-replicating M. tuberculosis project, secondary assay (AID 492998); assay type: functional, VeroE6; settings: Vero C1008
[15] = THP-1 cell cytotoxicity, dose response, cytotoxicity control for non-replicating M. tuberculosis project (AID 489025); assay type: functional
[16] = toxicity to human hepatoma HepG2 cells – cell-based, cherry-picked samples, cytotoxicity control, dose response (AID 1159577); assay type: functional
[17] = P. falciparum Dd2 growth inhibitors, dose response, SYBR Green, cherry-picked samples (AID 1159567); assay type: functional, cell-based

Chain of DNA dC->dU-editing enzyme APOBEC-3G (Q9HC16 whole entry): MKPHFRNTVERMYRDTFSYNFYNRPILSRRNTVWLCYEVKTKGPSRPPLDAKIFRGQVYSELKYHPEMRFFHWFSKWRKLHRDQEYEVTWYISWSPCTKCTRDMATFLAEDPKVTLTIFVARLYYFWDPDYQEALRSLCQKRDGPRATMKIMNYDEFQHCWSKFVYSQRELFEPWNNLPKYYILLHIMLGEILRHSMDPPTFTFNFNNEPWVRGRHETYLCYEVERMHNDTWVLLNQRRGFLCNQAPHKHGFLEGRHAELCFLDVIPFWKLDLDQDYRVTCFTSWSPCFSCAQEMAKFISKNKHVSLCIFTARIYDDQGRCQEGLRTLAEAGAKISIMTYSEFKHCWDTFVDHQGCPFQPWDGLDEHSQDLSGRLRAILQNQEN
Chain of Cytochrome P450 2D6 (P10635 whole entry): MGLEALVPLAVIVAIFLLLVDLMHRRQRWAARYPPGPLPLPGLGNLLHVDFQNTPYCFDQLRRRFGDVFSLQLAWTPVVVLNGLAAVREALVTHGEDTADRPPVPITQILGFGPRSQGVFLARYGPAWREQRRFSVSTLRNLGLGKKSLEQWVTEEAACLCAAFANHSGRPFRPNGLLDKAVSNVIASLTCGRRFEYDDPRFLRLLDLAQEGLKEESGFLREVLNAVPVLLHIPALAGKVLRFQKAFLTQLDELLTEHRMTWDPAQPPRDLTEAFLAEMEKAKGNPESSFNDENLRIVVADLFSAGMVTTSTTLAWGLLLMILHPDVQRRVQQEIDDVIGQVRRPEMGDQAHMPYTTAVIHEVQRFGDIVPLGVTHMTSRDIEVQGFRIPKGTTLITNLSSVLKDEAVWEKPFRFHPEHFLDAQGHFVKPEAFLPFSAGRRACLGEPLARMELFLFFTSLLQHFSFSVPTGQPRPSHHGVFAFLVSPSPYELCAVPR
Chain of Estrogen receptor beta (Q92731 whole entry): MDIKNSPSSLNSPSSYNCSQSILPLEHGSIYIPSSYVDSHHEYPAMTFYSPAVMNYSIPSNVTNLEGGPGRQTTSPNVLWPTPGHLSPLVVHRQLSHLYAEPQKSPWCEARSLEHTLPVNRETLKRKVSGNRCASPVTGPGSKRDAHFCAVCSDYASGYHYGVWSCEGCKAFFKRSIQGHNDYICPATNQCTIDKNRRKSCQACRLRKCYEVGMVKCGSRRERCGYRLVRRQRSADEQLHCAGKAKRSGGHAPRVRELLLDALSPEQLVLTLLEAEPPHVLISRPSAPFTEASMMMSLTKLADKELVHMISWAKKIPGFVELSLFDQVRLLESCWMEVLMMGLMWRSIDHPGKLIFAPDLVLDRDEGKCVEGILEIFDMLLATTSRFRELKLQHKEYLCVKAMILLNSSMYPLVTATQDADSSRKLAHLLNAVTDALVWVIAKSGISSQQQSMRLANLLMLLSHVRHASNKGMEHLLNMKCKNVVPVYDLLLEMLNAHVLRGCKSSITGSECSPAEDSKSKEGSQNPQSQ
Chain of Cytochrome P450 2C19 (P33261 whole entry): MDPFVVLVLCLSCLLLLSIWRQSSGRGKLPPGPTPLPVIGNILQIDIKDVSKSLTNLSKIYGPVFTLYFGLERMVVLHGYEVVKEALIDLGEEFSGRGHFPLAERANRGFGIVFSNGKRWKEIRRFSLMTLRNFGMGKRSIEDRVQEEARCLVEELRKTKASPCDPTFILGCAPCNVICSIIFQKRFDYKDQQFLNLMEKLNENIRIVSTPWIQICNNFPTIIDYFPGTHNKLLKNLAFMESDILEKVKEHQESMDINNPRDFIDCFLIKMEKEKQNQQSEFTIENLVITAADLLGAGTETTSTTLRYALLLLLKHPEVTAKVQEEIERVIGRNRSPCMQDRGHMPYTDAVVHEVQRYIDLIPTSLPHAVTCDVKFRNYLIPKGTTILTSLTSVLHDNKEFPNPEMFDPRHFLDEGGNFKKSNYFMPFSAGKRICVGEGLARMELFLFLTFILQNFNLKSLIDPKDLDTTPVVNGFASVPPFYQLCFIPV
Chain of Large T antigen (P03070 whole entry): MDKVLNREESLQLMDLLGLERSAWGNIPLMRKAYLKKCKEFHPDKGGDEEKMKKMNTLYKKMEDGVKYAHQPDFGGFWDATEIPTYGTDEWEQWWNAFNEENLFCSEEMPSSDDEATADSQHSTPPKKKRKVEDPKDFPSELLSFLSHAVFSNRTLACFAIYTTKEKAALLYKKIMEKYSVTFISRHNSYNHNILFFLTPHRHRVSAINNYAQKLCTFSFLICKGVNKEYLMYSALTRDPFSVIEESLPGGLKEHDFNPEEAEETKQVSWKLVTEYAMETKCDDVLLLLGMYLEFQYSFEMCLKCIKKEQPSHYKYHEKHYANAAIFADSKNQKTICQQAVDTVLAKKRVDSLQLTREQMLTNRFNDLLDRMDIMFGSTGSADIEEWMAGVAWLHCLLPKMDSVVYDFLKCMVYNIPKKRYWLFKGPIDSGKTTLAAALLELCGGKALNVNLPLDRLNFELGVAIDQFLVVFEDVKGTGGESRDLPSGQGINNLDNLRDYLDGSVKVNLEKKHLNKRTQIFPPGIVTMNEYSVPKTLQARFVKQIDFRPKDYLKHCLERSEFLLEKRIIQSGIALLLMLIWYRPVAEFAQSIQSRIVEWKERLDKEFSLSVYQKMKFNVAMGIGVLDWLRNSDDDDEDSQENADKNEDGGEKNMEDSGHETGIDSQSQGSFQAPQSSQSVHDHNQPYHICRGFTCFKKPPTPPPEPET
Chain of Luciferin 4-monooxygenase (P08659 whole entry): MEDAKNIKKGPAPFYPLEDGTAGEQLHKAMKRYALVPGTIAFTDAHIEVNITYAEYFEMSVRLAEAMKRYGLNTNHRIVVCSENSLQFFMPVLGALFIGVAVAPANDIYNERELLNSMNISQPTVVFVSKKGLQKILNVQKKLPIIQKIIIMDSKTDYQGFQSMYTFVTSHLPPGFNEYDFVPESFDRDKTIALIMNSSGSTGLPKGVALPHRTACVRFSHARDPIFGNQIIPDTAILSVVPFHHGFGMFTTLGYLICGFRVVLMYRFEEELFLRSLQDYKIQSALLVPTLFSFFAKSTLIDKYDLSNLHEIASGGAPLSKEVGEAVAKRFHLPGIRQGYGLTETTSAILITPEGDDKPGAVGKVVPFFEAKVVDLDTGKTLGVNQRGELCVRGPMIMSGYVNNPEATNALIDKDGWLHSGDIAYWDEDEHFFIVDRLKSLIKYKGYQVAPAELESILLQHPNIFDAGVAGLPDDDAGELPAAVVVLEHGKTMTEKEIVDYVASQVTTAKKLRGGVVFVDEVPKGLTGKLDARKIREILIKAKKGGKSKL
Chain of DNA dC->dU-editing enzyme APOBEC-3A (P31941 whole entry): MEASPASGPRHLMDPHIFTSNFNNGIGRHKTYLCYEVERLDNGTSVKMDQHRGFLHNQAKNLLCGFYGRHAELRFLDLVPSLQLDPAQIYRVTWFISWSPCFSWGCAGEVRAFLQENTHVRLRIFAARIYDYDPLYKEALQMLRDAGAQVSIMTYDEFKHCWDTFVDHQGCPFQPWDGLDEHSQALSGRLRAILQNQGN

## Cc1cccc(-n2c(O)nc3c(C(N)=O)nc(-c4ccccc4Cl)nc32)c1
[1]
  EC50: 10.5 µM (active)
[2]
  EC50: 11.2 µM (active)

## Cc1cc(C(=O)CCl)c(C)n1-c1c(C)n(C)n(-c2ccccc2)c1=O
[3]
  CC50: > 40 µM (active)

## Cc1nn2c(-c3cccc(NC(=O)CSc4nc5ccccc5o4)c3)nnc2c2ccccc12
Estrogen receptor beta
  IC50: > 50 µM (not active)
[4]
  EC50: 7.73 µM (active)
[5]
  EC50: 7.91 µM (active)

## S=c1[nH]nc(Cc2cccs2)n1-c1ccccc1
[6]
  IC50: 7.51 µM (active)
[7]
  IC50: > 100 µM (inactive)

## COC(=O)c1cccc(NS(=O)(=O)c2ccc(OC)c(OC)c2)c1C
Coagulation factor XII
  IC50: > 50 µM (inactive)

## Cc1cccc(NC(S)=NC2CC3CCCC(C2)N3Cc2cccs2)c1 (configuration not stated)
[1]
  EC50: 65.3 µM (active)
[2]
  EC50: 92.3 µM (active)
Cytochrome P450 2C19
  AC50: 28.2 µM (inconclusive)
Cytochrome P450 2D6
  AC50: 3.98 µM (inconclusive)

## O=C(c1ccc(Cl)c([N+](=O)[O-])c1)N(Cc1ccc(Cl)cc1)C1CCS(=O)(=O)C1 (configuration not stated)
[1]
  EC50: 26.8 µM (active)
[2]
  EC50: 17.9 µM (active)

## O=c1n(Cc2ccc(Cl)cc2)c2sc3c(c2c2ncnn12)CCCC3
[4]
  EC50: 13.1 µM (active)
[5]
  EC50: 13.3 µM (active)

## OCCCCNCc1ccc(OCc2ccc(Cl)cc2Cl)cc1
[8]
  EC50: 1.68 µM (active)
[9]
  EC50: 17.3 µM (active)
[1]
  EC50: 10.9 µM (active)
[2]
  EC50: 9.83 µM (active)

## COC(=O)CSc1nnc(-c2sc3cc(OC)ccc3c2Cl)n1C
Coagulation factor XII
  IC50: > 50 µM (inactive)
[10]
  EC50: 0.531 µM (active)

## CCOc1ccc(N(CC(=O)N2CCC(Cc3ccccc3)CC2)S(C)(=O)=O)cc1
[3]
  CC50: > 40 µM (active)

## COc1ccc(N2C(=O)C(Cl)=C(N3CCCC(C)C3)C2=O)cc1 (configuration not stated)
Coagulation factor XII
  IC50: > 50 µM (inactive)

## CCOc1cc(/C=N/NC(=O)N/N=C/c2ccc(O)c(OCC)c2)ccc1O
[11]
  EC50: 11.8 µM (active)
Large T antigen
  IC50: 4.27 µM (active)
[12]
  EC50: 1.2 µM (active)

## CC1=C/C(=N/c2c(C)n(C)n(-c3ccccc3)c2=O)C=CC1=O
[13]
  AC50: 29.5 µM (active)
Protein RecA
  EC50: 14 µM (active)
[3]
  CC50: > 40 µM (active)

## Cc1nn(-c2cccc(Cl)c2)c(O)c1/C=N/n1c(C)nc2ccccc2c1=O
cells
  IC50: 45.1 µM (active)
[14]
  CC50: > 20 µM (active)
[15]
  CC50: 28.7 µM (active)

## CC(C)NC(=O)N1CCCCN2[C@H](CO)[C@@H](c3ccc(C#C[C@@H](C)O)cc3)[C@@H]2C1
[16]
  AC50: > 39 µM (inactive)
[17]
  AC50: 27.8 µM (active)

## Cc1cccc(-c2ccc([C@@H]3[C@@H](CO)N4CCCCN(CCC(F)(F)F)C[C@H]34)cc2)c1
[16]
  AC50: 8.79 µM (active)
[17]
  AC50: 0.801 µM (active)

## O=C(C[C@H]1C[C@@H]2c3cc(NC(=O)c4cccnc4)ccc3O[C@@H]2[C@@H](CO)O1)NCc1ccc(Oc2ccccc2)cc1
[16]
  AC50: > 39 µM (inactive)
[17]
  AC50: 13.7 µM (active)

## COc1ccc(S(=O)(=O)N2CCC3(CC2)CN(C(=O)CN(C)C)[C@@H](CO)c2c3c3ccc(OC)cc3n2C)cc1
[16]
  AC50: 18.8 µM (active)
[17]
  AC50: 2.53 µM (active)
